Assay results from patent US20180155344A1, “TRICYCLIC PIPERIDINE COMPOUNDS” (ACTELION PHARMACEUTICALS LTD, priority 2015, published 2018).

biological target: T1, human TPH1 (Homo sapiens, UniProt P17752); experiment: biochemical; conditions: not given
T1 sequence (P17752 1-444): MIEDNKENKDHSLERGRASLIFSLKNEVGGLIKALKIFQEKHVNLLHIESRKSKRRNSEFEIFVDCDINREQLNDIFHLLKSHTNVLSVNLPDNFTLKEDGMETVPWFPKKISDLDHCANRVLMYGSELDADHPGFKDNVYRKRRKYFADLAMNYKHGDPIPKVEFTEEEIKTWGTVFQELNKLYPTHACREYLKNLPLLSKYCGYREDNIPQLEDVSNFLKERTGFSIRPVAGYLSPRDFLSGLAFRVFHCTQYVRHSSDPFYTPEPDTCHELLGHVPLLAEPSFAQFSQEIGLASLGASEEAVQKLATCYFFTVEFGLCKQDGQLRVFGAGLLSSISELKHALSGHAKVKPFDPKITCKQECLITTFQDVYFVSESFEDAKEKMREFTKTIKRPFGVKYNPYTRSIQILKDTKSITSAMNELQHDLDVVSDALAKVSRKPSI
Method in brief: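 Inhibition is derived from 5-hydroxy-L-tryptophan fluorescence (540 nm emission, 300 nm excitation) after perchloric acid stop, relative to DMSO vehicle. Recombinant full-length human enzyme (40-80 nM) reacts with 40 μM tryptophan plus 100 μM methyltetrahydropterin, pH 7.6 Tris/DTT/catalase, 15° C, 60 min.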

| Compound | IC50 [µM] |
| --- | --- |
| COc1ccc(C2c3c(nc4cc(Cl)ccn34)CCN2C(=O)COc2ccc(CN3CCOCC3)cc2Cl)cc1O (centres unmarked) [Example 2.8.2, 1-(7-chloro-1-(3-hydroxy-4-methoxyphenyl)-3,4-dihydroimidazo[1,2-a:5,4-c′]dipyridin-2(1H)-yl)-2-(2-chloro-4-(morpholinomethyl)phenoxy)ethan-1-one] | 0.154 |
| Cc1nc(C)c(C2c3c(nc4cc(C(F)(F)F)ccn34)CCN2C(=O)COc2ccc(C(=O)N(C)C3CC3)nc2Cl)s1 (centres unmarked) [Example 3.59.2, 6-chloro-N-cyclopropyl-5-(2-(1-(2,4-dimethylthiazol-5-yl)-7-(trifluoromethyl)-3,4-dihydroimidazo[1,2-a:5,4-c′]dipyridin-2(1H)-yl)-2-oxoethoxy)-N-methylpicolinamide] | 0.042 |
| COc1ccc(C2c3c(nc4cc(Cl)ccn34)CCN2C(=O)COc2ccc(CN3CCOCC3)cc2Cl)cc1OCCO (centres unmarked) [Example 2.13.2, 1-(7-chloro-1-(3-(2-hydroxyethoxy)-4-methoxyphenyl)-3,4-dihydroimidazo[1,2-a:5,4-c′]dipyridin-2(1H)-yl)-2-(2-chloro-4-(morpholinomethyl)phenoxy)ethan-1-one] | 0.023 |
| COc1ccc(C2c3c(nc4cc(C(F)(F)F)ccn34)CCN2C(=O)COc2cnccc2Cl)cc1OC (centres unmarked) [Example 3.1.18] | 0.235 |
| O=C(COc1ccc(N2CCOCC2)nc1Cl)N1CCc2nc3ccccn3c2C1c1ncc(Cl)cc1F (centres unmarked) [Example 1.14.1, 1-(1-(5-chloro-3-fluoropyridin-2-yl)-3,4-dihydroimidazo[1,2-a:5,4-c′]dipyridin-2(1H)-yl)-2-((2-chloro-6-morpholinopyridin-3-yl)oxy)ethan-1-one] | 0.004 |
| CS(=O)(=O)Nc1ccc(OCC(=O)N2CCc3nc4cnccn4c3C2c2ccc(Cl)cc2F)c(Cl)n1 (centres unmarked) [Example 17.2.1, N-(6-chloro-5-(2-(1-(4-chloro-2-fluorophenyl)-3,4-dihydropyrido[4′,3′:4,5]imidazo[1,2-a]pyrazin-2(1H)-yl)-2-oxoethoxy)pyridin-2-yl)methanesulfonamide] | 0.214 |
| Cc1ccc(C2c3c(nc4cc(Cl)ccn34)CCN2C(=O)COc2ccc(NS(C)(=O)=O)nc2Cl)c(F)c1 (centres unmarked) [Example 2.15.1, N-(6-chloro-5-(2-(7-chloro-1-(2-fluoro-4-methylphenyl)-3,4-dihydroimidazo[1,2-a:5,4-c′]dipyridin-2(1H)-yl)-2-oxoethoxy)pyridin-2-yl)methanesulfonamide] | 0.051 |
| Cc1noc(C)c1C1c2c(nc3cc(C(F)(F)F)ccn23)CCN1C(=O)COc1ccc(CN2CCOCC2)cc1Cl (centres unmarked) [Example 3.51.2, 2-(2-chloro-4-(morpholinomethyl)phenoxy)-1-(1-(3,5-dimethylisoxazol-4-yl)-7-(trifluoromethyl)-3,4-dihydroimidazo[1,2-a:5,4-c′]dipyridin-2(1H)-yl)ethan-1-one] | 0.217 |
| COc1ccc(C2c3c(nc4cc(C(F)(F)F)ccn34)CCN2C(=O)COc2cc(C)ccc2Cl)cc1OC (centres unmarked) [Example 3.1.12, 2-(2-chloro-5-methylphenoxy)-1-(1-(3,4-dimethoxyphenyl)-7-(trifluoromethyl)-3,4-dihydroimidazo[1,2-a:5,4-c′]dipyridin-2(1H)-yl)ethan-1-one] | 0.064 |
| O=C(COc1ccc(CN2CCOCC2)cc1Cl)N1CCc2nc3cc(C(F)(F)F)ccn3c2C1c1cccnc1 (centres unmarked) [Example 3.36.2, 2-(2-chloro-4-(morpholinomethyl)phenoxy)-1-(1-(pyridin-3-yl)-7-(trifluoromethyl)-3,4-dihydroimidazo[1,2-a:5,4-c′]dipyridin-2(1H)-yl)ethan-1-one] | 0.488 |
| COc1ccc(C2c3c(nc4cc(Cl)ccn34)CCN2C(=O)COc2ccc(CO)cc2Cl)cc1OC (centres unmarked) [Example 2.1.3, 1-(7-chloro-1-(3,4-dimethoxyphenyl)-3,4-dihydroimidazo[1,2-a:5,4-c′]dipyridin-2(1H)-yl)-2-(2-chloro-4-(hydroxymethyl)phenoxy)ethan-1-one] | 0.402 |
| COc1ccc(C2c3c(nc4ccccn34)CCN2C(=O)COc2ccc(C(=O)NC3CC3)nc2Cl)c(F)c1 (centres unmarked) [Example 1.3.3, 6-chloro-N-cyclopropyl-5-(2-(1-(2-fluoro-4-methoxyphenyl)-3,4-dihydroimidazo[1,2-a:5,4-c′]dipyridin-2(1H)-yl)-2-oxoethoxy)picolinamide] | 0.019 |
| COc1cc(F)c(C2c3c(nc4cc(C(F)(F)F)ccn34)CCN2C(=O)COc2ccc(C3(N[S+]([O-])C(C)(C)C)COC3)cc2Cl)cc1OC (centres unmarked) [Example 3.18.8, N-(3-(3-chloro-4-(2-(1-(2-fluoro-4,5-dimethoxyphenyl)-7-(trifluoromethyl)-3,4-dihydroimidazo[1,2-a:5,4-c′]dipyridin-2(1H)-yl)-2-oxoethoxy)phenyl)oxetan-3-yl)-2-methylpropane-2-sulfinamide] | 0.048 |

Now from value to compound:

| IC50 [µM] | Compound |
| --- | --- |
| 0.117 | COc1ccc(C2c3c(nc4cc(C(F)(F)F)ccn34)CCN2C(=O)COc2ccc3c(c2C)CCN(C)C3)c(F)c1 (centres unmarked) [Example 3.3.7, 2-((2,5-dimethyl-1,2,3,4-tetrahydroisoquinolin-6-yl)oxy)-1-(1-(2-fluoro-4-methoxyphenyl)-7-(trifluoromethyl)-3,4-dihydroimidazo[1,2-a:5,4-c′]dipyridin-2(1H)-yl)ethan-1-one] |
| 0.266 | COc1ccc(C2c3c(nc4cc(C(F)(F)F)ccn34)CCN2C(=O)COc2cccnc2C)cc1OC (centres unmarked) [Example 3.1.16] |
| 0.058 | Cc1ccc(C2c3c(nc4cc(C(F)(F)F)ccn34)CCN2C(=O)COc2ccc3ccccc3c2)nc1 (centres unmarked) [Example 3.50.1, 1-(1-(5-methylpyridin-2-yl)-7-(trifluoromethyl)-3,4-dihydroimidazo[1,2-a:5,4-c′]dipyridin-2(1H)-yl)-2-(naphthalen-2-yloxy)ethan-1-one] |
| 0.155 | Cc1cc(C2c3c(nc4cc(C(F)(F)F)ccn34)CCN2C(=O)COc2ccc3ccccc3c2)ccn1 (centres unmarked) [Example 3.57.1, 1-(1-(2-methylpyridin-4-yl)-7-(trifluoromethyl)-3,4-dihydroimidazo[1,2-a:5,4-c′]dipyridin-2(1H)-yl)-2-(naphthalen-2-yloxy)ethan-1-one] |
| 0.019 | COc1ccc(C2c3c(nc4cc(C(F)(F)F)ccn34)CCN2C(=O)COc2ccc3ccncc3c2)cc1OC (centres unmarked) [Example 3.1.20, 1-(1-(3,4-dimethoxyphenyl)-7-(trifluoromethyl)-3,4-dihydroimidazo[1,2-a:5,4-c′]dipyridin-2(1H)-yl)-2-(isoquinolin-7-yloxy)ethan-1-one] |
| 0.464 | Cc1cc(Cl)ccc1OCC(=O)N1CCc2nc3cc(C(F)(F)F)ccn3c2C1c1ncccc1F (centres unmarked) [Example 3.21.4, 2-(4-chloro-2-methylphenoxy)-1-(1-(3-fluoropyridin-2-yl)-7-(trifluoromethyl)-3,4-dihydroimidazo[1,2-a:5,4-c′]dipyridin-2(1H)-yl)ethan-1-one] |
| 0.016 | O=C(COc1ccc(CN2CCOCC2)cc1Cl)N1CCc2nc3cc(C(F)(F)F)ccn3c2C1c1ccccc1F (centres unmarked) [Example 3.35.2, 2-(2-chloro-4-(morpholinomethyl)phenoxy)-1-(1-(2-fluorophenyl)-7-(trifluoromethyl)-3,4-dihydroimidazo[1,2-a:5,4-c′]dipyridin-2(1H)-yl)ethan-1-one] |
| 0.217 | COc1ccc(C2c3c(nc4cc(C(F)(F)F)ccn34)CCN2C(=O)COc2ccc3c(c2C)CCNC3)c(F)c1 (centres unmarked) [Example 3.3.5, 1-(1-(2-fluoro-4-methoxyphenyl)-7-(trifluoromethyl)-3,4-dihydroimidazo[1,2-a:5,4-c′]dipyridin-2(1H)-yl)-2-((5-methyl-1,2,3,4-tetrahydroisoquinolin-6-yl)oxy)ethan-1-one] |
| 0.368 | O=C(COc1ccc2ccccc2c1)N1CCc2nc3cc(C(F)(F)F)ccn3c2C1c1cc(-c2ccc(F)cc2)on1 (centres unmarked) [Example 3.47.1, 1-(1-(5-(4-fluorophenyl)isoxazol-3-yl)-7-(trifluoromethyl)-3,4-dihydroimidazo[1,2-a:5,4-c′]dipyridin-2(1H)-yl)-2-(naphthalen-2-yloxy)ethan-1-one] |
| 0.349 | Cc1cc(C2c3c(nc4cc(C(F)(F)F)ccn34)CCN2C(=O)COc2ccc3ccccc3c2)no1 (centres unmarked) [Example 3.45.1, 1-(1-(5-methylisoxazol-3-yl)-7-(trifluoromethyl)-3,4-dihydroimidazo[1,2-a:5,4-c′]dipyridin-2(1H)-yl)-2-(naphthalen-2-yloxy)ethan-1-one] |
| 0.01 | COc1ccc(C2c3c(nc4cc(C)ccn34)CCN2C(=O)COc2ccc3ccccc3c2)cc1OC (centres unmarked) [Example 4.1.2, 1-(1-(3,4-dimethoxyphenyl)-7-methyl-3,4-dihydroimidazo[1,2-a:5,4-c′]dipyridin-2(1H)-yl)-2-(naphthalen-2-yloxy)ethan-1-one] |
| 0.067 | Cc1ccc(C2c3c(nc4cc(C(F)(F)F)ccn34)CCN2C(=O)COc2ccc3ccccc3c2)cc1 (centres unmarked) [Example 3.23.1, 2-(naphthalen-2-yloxy)-1-(1-(p-tolyl)-7-(trifluoromethyl)-3,4-dihydroimidazo[1,2-a:5,4-c′]dipyridin-2(1H)-yl)ethan-1-one] |

same assay, conditions: Table 1; full length human TPH1, 40 μM L-tryptophan, 15° C., 60 minutes; mean if determined several times

| Compound | IC50 [µM] |
| --- | --- |
| 1-(1-(4-(aminomethyl)phenyl)-7-(trifluoromethyl)-3,4-dihydroimidazo[1,2-a:5,4-c′]dipyridin-2(1H)-yl)-2-(naphthalen-2-yloxy)ethan-1-one [Example 3.31.1] | 0.073 |
